This note sets out measurements from US10870858B2 (priority 2014, dated 2020).

In this experiment the test system is stably-integrated TK strains. Nature of the experiment: FUdR counterselection of TK versus tk cells on SC media. Format: cell-based, Saccharomyces. Conditions: 50 μg/mL FUdR in synthetic complete (SC) media. As to the method: With a stably integrated copy of HSV-TK in each of several genomes, we were able to evaluate counterselection media conditions. […] As an initial test of our ability to recover newly generated tk wild-type cells, we transformed a strain of S. kudriavzevii that had regions of identical sequence on either side of its hoΔ::NatMX locus with TkMX PCR product and selected for cells resistant to the antifolate drugs (FIG. 4A). When counterselection with SC+FUdR media was conducted, only cells that had deleted the TkMX marker by homologous recombination survived and yielded colonies resistant to FUdR (FIG. 4B).

With `O=c1[nH]c(=O)n([C@H]2C[C@H](O)[C@@H](CO)O2)cc1F` [FUdR, 5-fluorodeoxyuridine], the “growth of stably-integrated TK strains” value was “sufficient to inhibit growth” and the “growth of tk wild-type cells” value was “allow growth”.
